Test results published in patent US5955421A, “Peptides containing D-2-alkyl-Tryptophan” (priority 1990, dated 1999).
Square brackets hold non-standard residues; d marks the D form. Peptide text beside a SMILES is read from it.

How the values were obtained:
[1] = Stability of D-Trp and D-2-methyl-Trp in 1% solutions (HPLC peak area); format: physicochemical; conditions: pH 2.2 citrate buffer, dark, helium (FIG. 1), pH 5.4 acetate buffer, oxygen, constant light (FIG. 2)
[2] = system: adenylcyclase; assay: Adenylcyclase activity in anterior pituitary gland cells; format: cell-based; conditions: anterior pituitary gland cells from rats weighing 150 g
[3] = system: GH release; assay: Released GH in ten day-rats, s.c. (Table 9); format: in vivo; conditions: 15 minutes
Experimental: In vivo activity of these compounds was determined in ten day-rats, which were subcutaneously injected (s.c.) with a dose of 300 μg/kg or with different doses in dose-response studies, according to the procedure as described in Deghenghi et. al, Life Sciences 54, 1321 (1994). The released GH was measured 15 minutes following compound administration.

[4] = system: pituitary cell monolayers; assay: GH secretion of pituitary cell monolayers incubated with peptides; format: cell-based, rats; conditions: 2 hours incubation
Experimental: (§1) Male Sprague Dawley rats (Charles River, Calco, Italy) of 2-3 months of age were used. Rats were housed at 22 +2° C., with lighting cycle of 14 h light: 10 h dark (lights on from 06.00 to 20.00 h), at least 10 days before starting the experiments. A standard dry diet and water were available ad libitum.
Pituitary tissue used for cell dissociation included only the anterior lobe. Briefly, pituitary glands were collected in sterile F-10 medium and after cutting into small fragments incubated twice (30 minutes each) at 37° C. in F-10 medium containing 6% fetal calf serum and collagenase (2.5 mg/ml) (Boehringer, Mannheim GmbH, Germany). Fragments were then washed in Dulbecco's PBS, Ca^2 + and Mg^2 + free medium and mechanically dissociated. Single cell suspension was planted onto 24-well (2×10^5 cells/well) culture plates. The cells were incubated in F-10 medium supplemented with 10% horse serum, 4% fetal calf serum and gentamycin (25 μg/ml), in a humidified atmosphere of 5% CO2 and 95% air at 37° C.
After 3 days, the medium was removed and the cells washed twice with serum free F-10, then incubated with 1 ml of F-10 containing 0.1% BSA only, or with added various concentrations of synthetic peptides.
After incubation for 2 h at 37° C., media were collected and stored frozen at -20° C. until assayed for measurement of GH content.
(§2) Medium and plasma GH was measured by radioimmunoassay using materials supplied by the NIADDK Bethesda, Md. Values were expressed in term of NIASSK-rat-GH-RP-2 standard (potency 2 IU/ml), as ng/ml of medium or plasma.
(§3) The minimum detectable value of rat was 1.0 ng/ml; intra-assay variability was 6%. To avoid inter-assay variation, samples from each experiment were assayed simultaneously.

[5] = system: GH release; assay: GH response in conscious, freely-moving rats after antiserum pretreatment, i.v. 25 μg/kg; format: in vivo; conditions: 25 μg/kg i.v.
Experimental: Sixty male rats were prepared with indwelling venous catheters under ether anesthesia three days before experimentation. On the day of experimentation, all animals were given an iv heparin injection (100 IU; 0630 h). At 0700 h, animals were treated with 0.5 ml of either normal serum (control-as), somatostatin antiserum (somatostatin-as; 0.25 ml+0.25 ml saline), growth hormone-releasing hormone antiserum (GHRH-as; 0.25 ml+0.25 ml saline), or both somatostatin antiserum and growth hormone-releasing hormone antiserum (0.25 ml somatostatin-as+0.25 ml GHRH-as). Blood sampling began 60 minutes after antiserum pretreatment, with blood samples collected every 20 minutes for three hours. After the 180 minute sample (1100 h), animals were treated iv with 25 μg/kg of either Hexarelin or GHRP-6. Blood samples were then collected at 5, 10, 15, 20, 30, 40, and 60 minutes after peptide treatment. All samples were centrifuged immediately and the plasma frozen until assayed. The peak GH response to Hexarelin and GHRP-6 as well as the area under the response curves (AUCs) for the thirty minutes following peptide injection were calculated. Data were subjected to repeated measures analysis of variance and are expressed as mean±SEM.

[6] = system: rat; assay: Acute cardiovascular toxicity in the rat, single i.v. dose, mortality; format: in vivo; conditions: observed up to 4 hours
Experimental: These two peptides were also tested for acute cardiovascular toxicity in the rat.
Dosages were calculated on the basis of the declared peptide content in each product, as specified below:
A single dose of HEXARELIN or GHRP-6 was administered to rats in different calendar dates in such a way that each group/dose should be treated in two subsequent days.
For each compound, appropriate amounts of solutions in 0.9% NaCl for injection were prepared just before treatment at the suitable concentrations. The solutions were sterilized by filtration (Millipore filter, pore size 0.22 μm). Owing to the type of the study (acute study) in which formulates were administered just after preparation, stability checks were not performed. Concentration checks were also not performed. The volume of solution injected was maintained constant at 1 ml/Kg.
The intravenous injections were done as a single dose in one vein of the tail with an appropriately gauged sterile, disposable, plastic syringe. The injection rate was about 0.1 ml/sec.
Periodical observations were made up to 4 hours after treatment. Abnormality and mortality were recorded. Body weight was recorded once during pre-trial and on the administration day to calculate the volumes to be injected.

[7] = system: GH release; assay: Plasma GH after s.c. administration in male rats anesthetized with ketamine and xilazine; format: in vivo; conditions: 0 min (before injection)
Experimental: as §1
(§4) Between 09.00-10.00 h rats were anesthetized with ketamine (58 mg/kg, Inoketam, VIRBAC, Milano) and xilazine (12 mg/kg, Rompun, Bayer, Milano). Thirty minutes later, a blood sample ([…]) was withdrawn from the exposed jugular vein, peptides were injected intravenously or subcutaneously, and further blood samples were collected 10, 20 and 30 minutes later.
as §2, §3

[8] = system: GH release; assay: Plasma GH after i.v. administration in male rats anesthetized with ketamine and xilazine; format: in vivo; conditions: 0 min (before injection)
Experimental: as §1, §4, §2, §3

[9] = 300 μg/kg s.c., GH control 10 to 31 ng/ml depending on experiment

Cc1[nH]c2ccccc2c1C[C@@H](N)C(=O)O [substituted Trp, D-2-Methyl-Tryptophan]
time stable in solution (HPLC peak area) [1]: ≥ 60 days

D-Ala-D-Mrp-Ala-Trp-D-Phe-Lys-NH2 [D-Ala-D-Mrp--Ala--Trp-D-Phe--Lys--NH2]
EC50 [2]: 0.23 nM
adenylcyclase activity, increase compared with the baseline [2]: 30%
GH released ([3]; 40 μg/kg s.c., GH control 34 ± 1): 200 ± 20 ng/mL
GH released ([3]; 320 μg/kg s.c., GH control 34 ± 1): 251 ± 32 ng/mL

N[C@H](Cc1c[nH]c2ccccc12)C(=O)O [unsubstituted Trp, D-Tryptophan, reference compound]
time stable in solution (HPLC peak area) [1]: about 20 days

C[C@H](NC(=O)[C@@H](Cc1c[nH]c2ccccc12)NC(=O)[C@@H](N)Cc1c[nH]cn1)C(=O)N[C@@H](Cc1c[nH]c2ccccc12)C(=O)N[C@H](Cc1ccccc1)C(=O)N[C@@H](CCCCN)C(N)=O [GHRP-6, His-D-Trp-Ala-Trp-D-Phe-Lys-NH2] (H-H[dW]AW[dF]K-NH2)
adenylcyclase activity, increase compared with the baseline [2]: inactive
GH-releasing activity ([4]; 10^-6 M): 510.0 ± 12.0 ng/well
GH-releasing activity ([4]; 10^-7 M): 526.5 ± 19.0 ng/well
GH-releasing activity ([4]; 10^-8 M): 544.2 ± 23.9 ng/well
Mean GH ([5]; main peptide effect pooled over antiserum pretreatments): 131 ± 13 ng/mL
Peak GH ([5]; pooled over antiserum pretreatments): 293 ± 41 ng/mL
GH AUC ([5]; thirty minutes following injection, pooled over antiserum pretreatments): 4220 ± 665 ng/ml/30 min
Dead rats/Total No of rats per group ([6]; 2.5 mg/kg i.v. single dose): 0/6
Dead rats/Total No of rats per group ([6]; 5.0 mg/kg i.v. single dose): 1/6
Dead rats/Total No of rats per group ([6]; 7.5 mg/kg i.v. single dose): 2/6
plasma GH ([7]; s.c. 150 μg/kg): 20.0 ± 5.0 ng/mL
plasma GH ([7]; s.c. 300 μg/kg): 20.0 ± 6.0 ng/mL
plasma GH ([7]; s.c. 600 μg/kg): 18.0 ± 4.0 ng/mL
plasma GH ([8]; i.v. 150 μg/kg): 30.2 ± 7.8 ng/mL
plasma GH ([8]; i.v. 300 μg/kg): 21.9 ± 4.4 ng/mL
plasma GH ([8]; i.v. 600 μg/kg): 21.2 ± 6.1 ng/mL

imidazolylacetyl-D-Mrp-Ala-Trp-D-Phe-Lys-NH2
GH released [3, 9]: 159 ± 27 ng/mL

4-(aminomethyl)cyclohexanecarbonyl-D-Mrp-D-Trp-Phe-Lys-NH^2
GH released [3, 9]: 111.8 ± 24.6 ng/mL
